According to patent US8293745B2 (Bioniche Life Sciences Inc., priority 2004, dated 2012):

Key:
HIV-1 = settings: cited from earlier work
EMC virus = settings: L929 cells; cited from earlier work
HCV = settings: 400 mg/day
Method: A person diagnosed with chronic active hepatitis C. […] The patient was positive for antibodies for HCV. Histological confirmation of chronic hepatitis was corroborated by positive hepatic biopsies at month zero.
For 18 months, the patient was treated with interferon alpha-2 at 180 μg/week. For the next 4 months, the patient was given intravenous administration of 6 million units (MU) interferon-beta daily for 6 weeks followed by three times weekly for 20 weeks. Subsequently, the patient was treated with interferon alpha-2 at 180 μg/week plus ribavirin 1000-1200 mg/day for 5 months. Subsequently, the patient was treated with pegylated interferon alpha-2b (PEG-interferon) at 1.5 μg/kg once weekly for 25 months.
Subsequently, the patient was diagnosed with a GIST of the posterior wall of the stomach. […] The patient then underwent surgical resection of the GIST.

[1] = system: GIST of the posterior wall of the stomach; test: Imatinib mesylate treatment of GIST in the same patient
chronic phase CML = settings: high-dose, newly diagnosed chronic phase CML; cited from earlier work
c-Kit tyrosine kinase = settings: cited from earlier work
[2] = human patient with HCV and GIST, within 2 weeks after the beginning of treatment, FIG. 1

For OCCC#Cc1nc(-c2ccc(F)cc2)c(-c2ccncc2)n1CCCc1ccccc1 [RWJ67657], the HIV-1 replication (HIV-1) is given as “effective in inhibiting HIV-1 replication”.
In the case of O=c1c(-c2ccc(O)cc2)coc2cc(O)cc(O)c12 [genistein], the EMC virus replication (EMC virus) is listed as “suppressed viral replication”.
In the case of CO[C@H]1[C@@H](OC)C[C@H](C)[C@@H](OC)C2=CC(=O)C=C(NC(=O)/C(C)=C/C=C\[C@H](OC)[C@@H](OC(N)=O)/C(C)=C/[C@@H]1C)C2=O [herbimycin A], the EMC virus replication (EMC virus) is given as “suppressed viral replication”.
In the case of CS(=O)(=O)O.Cc1ccc(NC(=O)c2ccc(CN3CCN(C)CC3)cc2)cc1Nc1nccc(-c2cccnc2)n1 [imatinib mesylate, 4-[(4-methyl-1-piperazinyl)methyl]-N-[4-methyl-3-[[4-(3-pyridinyl)-2-pyrimidinyl]amino]phenyl]-benzamide methanesulfonate], the “levels of alanine aminotransferase” value (HCV; [2]) is reported as “dramatically decreased”, the “levels of aspartate aminotransferase” value (HCV; [2]) is reported as “dramatically decreased” and the quality of life (HCV; patient-reported) is reported as “clear improvement”. The “remission of GIST” value ([1]; 400 mg/day, pre- and postoperative) was “achieved cytogenetic and molecular remission”, the complication during treatment ([1]; after 5 months preoperative 400 mg/day, treatment halted) was “acute hemorrhage of the tumor” and the “attenuation of the gastric tumor (histologic examination)” value ([1]; after imatinib mesylate treatment) was “significant decreased attenuation”. For the same compound, the metastasis status ([1]; one year after the initiation of treatment) was “without metastasis”.
In the case of Cc1ccc(NC(=O)c2ccc(CN3CCN(C)CC3)cc2)cc1Nc1nccc(-c2cccnc2)n1 [imatinib, 4-[(4-methyl-1-piperazinyl)methyl]-N-[4-methyl-3-[[4-(3-pyridinyl)-2-pyrimidinyl]amino]phenyl]-benzamide], the “rates of complete cytogenetic response and of molecular response” value (chronic phase CML) is given as “higher rates” and the “inhibition of c-Kit tyrosine kinase activity, wild-type vs constitutively active enzyme” value (c-Kit tyrosine kinase) is given as “equally effective against both wild-type and constitutively active enzyme”.
